In patent US20050276862A1, “Iron sequestering antimicrobial composition” (priority 2004, published 2005):

Assay: Log stability constants of ligands for metal ions (literature)
Conditions: Fe(III) minus Ca
Description: A measure of the “affinity” of metal-ion sequestrants for various metal-ions is given by the stability constant (also often referred to as critical stability constants, complex formation constants, equilibrium constants, or formation constants) of that sequestrant for a given metal-ion. […] The ability of a specific molecule or ligand to sequester a metal-ion may depend also upon the pH, the concentrations of interfering ions, and the rate of complex formation (kinetics). Generally, however, the greater the stability constant, the greater the binding affinity for that particular metal-ion. Often the stability constants are expressed as the natural logarithm of the stability constant. Herein the stability constant for the reaction of a metal-ion (M) and a sequestrant or ligand (L) is defined as follows: M+n L⇄MLn
where the stability constant is βn=[MLn]/[M][L]^n, wherein [MLn] is the concentration of “complexed” metal-ion, [M] is the concentration of free (uncomplexed) metal-ion and [L] is the concentration of free ligand. The log of the stability constant is log βn, and n is the number of ligands which coordinate with the metal. It follows from the above equation that if βn is very large, the concentration of “free” metal-ion will be very low. […]

For O=C(O)CN(CCN(CC(=O)O)CC(=O)O)CCN(CC(=O)O)CC(=O)O [DTPA, diethylenetriaminepentaacetic acid], which “difference between the log stability constants (specificity)” value is on record?
Its value is 17.2.
